From ChEMBL document CHEMBL3885861, “Open TG-GATES”

Organism: Rattus norvegicus
Test: Open TG-GATES - Regimen: Single
Assay type: toxicity, organism-based, Sprague-Dawley
Design: regimen Single, gender Male, age 6 weeks
Details: in vivo, iv, route intravenous injection; for MCV / Mono / Neu / PT / Plat / RBC / Ret / WBC / APTT / Bas / Eos / Fbg / Ht / Lym / Hb / MCH / MCHC: tissue Blood; for KIDNEY_L / KIDNEY_R / KIDNEY_TOTAL: tissue Kidney; for LIVER: tissue Liver
[1] = 30 mg/kg, 3 h, dose level Middle
[2] = 30 mg/kg, 3 h, tissue Plasma, dose level Middle
[3] = 30 mg/kg, 6 h, dose level Middle
[4] = 30 mg/kg, 6 h, tissue Plasma, dose level Middle
[5] = 30 mg/kg, 9 h, dose level Middle
[6] = 30 mg/kg, 9 h, tissue Plasma, dose level Middle
[7] = 30 mg/kg, 24 h, dose level Middle
[8] = 30 mg/kg, 24 h, tissue Plasma, dose level Middle
[9] = 100 mg/kg, 3 h, dose level High
[10] = 100 mg/kg, 3 h, tissue Plasma, dose level High
[11] = 100 mg/kg, 6 h, dose level High
[12] = 100 mg/kg, 6 h, tissue Plasma, dose level High
[13] = 100 mg/kg, 9 h, dose level High
[14] = 100 mg/kg, 9 h, tissue Plasma, dose level High
[15] = 100 mg/kg, 24 h, dose level High
[16] = 100 mg/kg, 24 h, tissue Plasma, dose level High

GENTAMICIN
MCV [1]: 62.9 fL | Mono [1]: 3.2% | Neu [1]: 16.4% | PT [1]: 16.2 s | Plat [1]: 131.2 x10_4/uL | RBC [1]: 626.2 x10_4/ul | Ret [1]: 6.5% | WBC [1]: 81.8 x10_2/uL | KIDNEY_L [1]: 0.9 g | KIDNEY_R [1]: 0.9 g | KIDNEY_TOTAL [1]: 1.8 g | LIVER [1]: 9.6 g | ALT [2]: 42.6 IU/L | AST [2]: 82.2 IU/L | CRE [2]: 0.1 mg/dL | DBIL [2]: 0.004 mg/dL | GLC [2]: 182 mg/dL | IP [2]: 8.1 mg/dL | K [2]: 4.3 meq/L | LDH [2]: 251.4 IU/L | PL [2]: 133.2 mg/dL | RALB [2]: 2.9 g/dL | TBIL [2]: 0.02 mg/dL | TC [2]: 62.4 mg/dL | TG [2]: 99.2 mg/dL | TP [2]: 5.3 g/dL | gamma-GTP [2]: 1.4 IU/L | TERMINAL_BW [3]: 210.3 g | APTT [3]: 23.2 s | Bas [3]: 0% | Eos [3]: 0.4% | Fbg [3]: 291.6 mg/dL | Ht [3]: 39.5% | Lym [3]: 77.6% | MCV [3]: 62 fL | Mono [3]: 3.4% | PT [3]: 16 s | Plat [3]: 119.1 x10_4/uL | RBC [3]: 636.4 x10_4/ul | Ret [3]: 6.3% | WBC [3]: 117 x10_2/uL | KIDNEY_L [3]: 0.9 g | KIDNEY_R [3]: 1 g | KIDNEY_TOTAL [3]: 1.9 g | LIVER [3]: 8.7 g | ALP [4]: 1316 IU/L | ALT [4]: 35 IU/L | AST [4]: 68.8 IU/L | BUN [4]: 9.4 mg/dL | CRE [4]: 0.1 mg/dL | DBIL [4]: 0.002 mg/dL | GLC [4]: 177.2 mg/dL | IP [4]: 9 mg/dL | K [4]: 4.3 meq/L | PL [4]: 139.4 mg/dL | RALB [4]: 3 g/dL | TBIL [4]: 0.024 mg/dL | TC [4]: 74.6 mg/dL | TG [4]: 84.4 mg/dL | TP [4]: 5.3 g/dL | gamma-GTP [4]: 1 IU/L | TERMINAL_BW [5]: 213 g | APTT [5]: 24 s | Bas [5]: 0% | Eos [5]: 1% | Fbg [5]: 294.6 mg/dL | Hb [5]: 13 g/dL | Ht [5]: 38.6% | Lym [5]: 77.4% | MCH [5]: 21 pg | MCHC [5]: 33.6% | Mono [5]: 3% | Neu [5]: 17.2% | PT [5]: 16.2 s | Plat [5]: 122.8 x10_4/uL | RBC [5]: 617.4 x10_4/ul | Ret [5]: 5.8% | WBC [5]: 109.5 x10_2/uL | KIDNEY_L [5]: 1 g | KIDNEY_R [5]: 1 g | KIDNEY_TOTAL [5]: 2 g | LIVER [5]: 8.5 g | ALP [6]: 1266.6 IU/L | ALT [6]: 34.4 IU/L | AST [6]: 72 IU/L | BUN [6]: 10.8 mg/dL | CRE [6]: 0.1 mg/dL | DBIL [6]: 0.002 mg/dL | GLC [6]: 175.2 mg/dL | IP [6]: 9.5 mg/dL | K [6]: 4.4 meq/L | LDH [6]: 134.6 IU/L | Na [6]: 144.2 meq/L | PL [6]: 134.2 mg/dL | RALB [6]: 2.9 g/dL | TBIL [6]: 0.022 mg/dL | TC [6]: 73.8 mg/dL | TG [6]: 49.4 mg/dL | TP [6]: 5.2 g/dL | gamma-GTP [6]: 1.6 IU/L | TERMINAL_BW [7]: 228.1 g | APTT [7]: 22.7 s | Bas [7]: 0% | Eos [7]: 0.8% | Fbg [7]: 295.4 mg/dL | Hb [7]: 12.9 g/dL | Ht [7]: 38% | Lym [7]: 76.6% | MCHC [7]: 34% | MCV [7]: 61.3 fL | Mono [7]: 4% | Neu [7]: 18% | PT [7]: 16.4 s | Plat [7]: 115.7 x10_4/uL | RBC [7]: 621.4 x10_4/ul | Ret [7]: 6% | WBC [7]: 112.3 x10_2/uL | KIDNEY_L [7]: 1 g | KIDNEY_R [7]: 1 g | KIDNEY_TOTAL [7]: 2 g | LIVER [7]: 10.2 g | ALP [8]: 1367.4 IU/L | ALT [8]: 41.4 IU/L | BUN [8]: 15.6 mg/dL | CRE [8]: 0.2 mg/dL | DBIL [8]: 0.004 mg/dL | IP [8]: 7.2 mg/dL | K [8]: 4.1 meq/L | LDH [8]: 137.2 IU/L | PL [8]: 153.2 mg/dL | RALB [8]: 3 g/dL | TBIL [8]: 0.02 mg/dL | TC [8]: 81.4 mg/dL | TG [8]: 101.6 mg/dL | TP [8]: 5.4 g/dL | gamma-GTP [8]: 1 IU/L | TERMINAL_BW [9]: 221.2 g | APTT [9]: 22.7 s | Bas [9]: 0% | Eos [9]: 1% | Fbg [9]: 284 mg/dL | Ht [9]: 37.3% | Lym [9]: 72% | MCV [9]: 63.9 fL | Mono [9]: 3% | Neu [9]: 23.3% | Plat [9]: 123.5 x10_4/uL | RBC [9]: 584 x10_4/ul | Ret [9]: 6.4% | WBC [9]: 86 x10_2/uL | KIDNEY_L [9]: 1 g | KIDNEY_R [9]: 1 g | KIDNEY_TOTAL [9]: 1.9 g | LIVER [9]: 9.9 g | ALP [10]: 1392.3 IU/L | ALT [10]: 41.3 IU/L | AST [10]: 82.7 IU/L | BUN [10]: 13 mg/dL | CRE [10]: 0.1 mg/dL | Ca [10]: 11 mg/dL | DBIL [10]: 0.0067 mg/dL | GLC [10]: 177.3 mg/dL | IP [10]: 7.9 mg/dL | K [10]: 4.1 meq/L | LDH [10]: 155.3 IU/L | PL [10]: 129.7 mg/dL | RALB [10]: 2.8 g/dL | TBIL [10]: 0.03 mg/dL | TC [10]: 69.3 mg/dL | TG [10]: 71.7 mg/dL | TP [10]: 5.2 g/dL | gamma-GTP [10]: 1 IU/L | TERMINAL_BW [11]: 211.7 g | APTT [11]: 24.2 s | Bas [11]: 0% | Eos [11]: 0.8% | Fbg [11]: 292 mg/dL | Ht [11]: 39.4% | Lym [11]: 74.2% | MCH [11]: 21 pg | MCHC [11]: 33.9% | MCV [11]: 61.9 fL | Mono [11]: 3.6% | Neu [11]: 20.6% | PT [11]: 15.9 s | Plat [11]: 126.2 x10_4/uL | RBC [11]: 637 x10_4/ul | Ret [11]: 6.6% | WBC [11]: 92.6 x10_2/uL | KIDNEY_L [11]: 0.9 g | KIDNEY_R [11]: 0.9 g | KIDNEY_TOTAL [11]: 1.8 g | LIVER [11]: 8.4 g | ALP [12]: 1407.2 IU/L | ALT [12]: 34.8 IU/L | AST [12]: 67.6 IU/L | CRE [12]: 0.1 mg/dL | DBIL [12]: 0.004 mg/dL | GLC [12]: 176.2 mg/dL | IP [12]: 9 mg/dL | K [12]: 4.7 meq/L | LDH [12]: 165.8 IU/L | PL [12]: 144.4 mg/dL | RALB [12]: 2.9 g/dL | TBIL [12]: 0.02 mg/dL | TG [12]: 98.6 mg/dL | TP [12]: 5.2 g/dL | gamma-GTP [12]: 1.2 IU/L | TERMINAL_BW [13]: 211.4 g | APTT [13]: 22.4 s | Bas [13]: 0% | Eos [13]: 0.8% | Fbg [13]: 296.4 mg/dL | Hb [13]: 12.9 g/dL | Ht [13]: 38.7% | Lym [13]: 80.6% | MCH [13]: 20.6 pg | MCHC [13]: 33.3% | MCV [13]: 61.9 fL | Mono [13]: 3.2% | Plat [13]: 120.1 x10_4/uL | RBC [13]: 625.2 x10_4/ul | Ret [13]: 6.4% | WBC [13]: 76.1 x10_2/uL | KIDNEY_L [13]: 0.9 g | KIDNEY_R [13]: 1 g | KIDNEY_TOTAL [13]: 1.9 g | LIVER [13]: 8.6 g | ALP [14]: 1221 IU/L | ALT [14]: 30.8 IU/L | AST [14]: 65.6 IU/L | BUN [14]: 12.8 mg/dL | CRE [14]: 0.1 mg/dL | Ca [14]: 11 mg/dL | DBIL [14]: 0.002 mg/dL | GLC [14]: 174.6 mg/dL | IP [14]: 9.4 mg/dL | K [14]: 4.7 meq/L | LDH [14]: 145.2 IU/L | PL [14]: 144 mg/dL | RALB [14]: 2.9 g/dL | TBIL [14]: 0.016 mg/dL | TC [14]: 77 mg/dL | TG [14]: 70.4 mg/dL | TP [14]: 5.3 g/dL | gamma-GTP [14]: 1 IU/L | TERMINAL_BW [15]: 225.5 g | APTT [15]: 23.2 s | Bas [15]: 0% | Eos [15]: 1% | Fbg [15]: 301.2 mg/dL | Hb [15]: 13.6 g/dL | Ht [15]: 39.5% | Lym [15]: 77.4% | MCHC [15]: 34.4% | MCV [15]: 60.8 fL | Mono [15]: 4.8% | PT [15]: 16.4 s | Plat [15]: 122.8 x10_4/uL | RBC [15]: 649.4 x10_4/ul | Ret [15]: 5.4% | WBC [15]: 96.8 x10_2/uL | KIDNEY_L [15]: 1 g | KIDNEY_R [15]: 1 g | KIDNEY_TOTAL [15]: 2 g | LIVER [15]: 9.6 g | ALP [16]: 1293.2 IU/L | ALT [16]: 37.8 IU/L | AST [16]: 66.4 IU/L | CRE [16]: 0.1 mg/dL | DBIL [16]: 0.002 mg/dL | GLC [16]: 186.4 mg/dL | IP [16]: 7.7 mg/dL | K [16]: 4.2 meq/L | LDH [16]: 159.2 IU/L | PL [16]: 162.4 mg/dL | RALB [16]: 3.1 g/dL | TBIL [16]: 0.018 mg/dL | TC [16]: 82.4 mg/dL | TG [16]: 110.2 mg/dL | TP [16]: 5.5 g/dL | gamma-GTP [16]: 1.2 IU/L
